This passage reports Km results from publication PMC11047187 (Synthetic and Systems Biotechnology, 2024).

The target in assay [1] is T1, EcFADS (FAD synthase, RibF; RFK activity) (Escherichia coli, UniProt P0AG40).
T1 construct: full-length bifunctional RibF in pETDuet-1 (BamHI/NotI), His-tagged, Ni-NTA purified, expressed in E. coli BL21(DE3); natural BL21 variant H115L (not engineered); about 35 kDa; mainly monomer; tag removal not mentioned
The experiment in a line: RFK assay, FMN by HPLC fluorescence, Michaelis-Menten fit. In kind it is biochemical. Conditions: riboflavin kinase activity; 0.01-0.8 mM ATP, saturated RF; 15 mM MgCl2, 10 mM Na2SO3, potassium phosphate pH 7.5, 37 °C; read-out: KATP m. The text has this:
(§1) RFK assay, FMN by HPLC fluorescence, Michaelis-Menten fit on EcFADS (FAD synthase, RibF; RFK activity)

Assay [2] concerns the target T2, EcFADS (FAD synthase, RibF; RFK activity) (Escherichia coli, UniProt P0AG40, H187L/N282D, form not given).
T2 construct: full-length bifunctional RibF in pETDuet-1 (BamHI/NotI), His-tagged, Ni-NTA purified, expressed in E. coli BL21(DE3); natural BL21 variant H115L (not engineered); about 35 kDa; mainly monomer; tag removal not mentioned
The description is as above. In kind it is biochemical. Conditions: riboflavin kinase activity; 0.01-0.8 mM ATP, saturated RF; 15 mM MgCl2, 10 mM Na2SO3, potassium phosphate pH 7.5, 37 °C; read-out: KATP m.
Excerpt: as §1

T2 sequence (P0AG40 whole entry H187L/N282D, form open): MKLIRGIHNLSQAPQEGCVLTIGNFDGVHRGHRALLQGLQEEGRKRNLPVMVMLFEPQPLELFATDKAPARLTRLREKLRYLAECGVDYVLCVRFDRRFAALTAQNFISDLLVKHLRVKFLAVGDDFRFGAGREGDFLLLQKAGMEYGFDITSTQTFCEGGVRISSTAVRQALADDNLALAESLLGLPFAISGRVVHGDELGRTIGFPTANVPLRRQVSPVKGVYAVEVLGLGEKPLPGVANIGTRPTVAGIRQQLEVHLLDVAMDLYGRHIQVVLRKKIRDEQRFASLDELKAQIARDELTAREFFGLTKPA

Consider `Nc1ncnc2c1ncn2[C@@H]1O[C@H](COP(=O)(O)OP(=O)(O)OP(=O)(O)O)[C@@H](O)[C@H]1O` [ATP], for which the Km was found to be 10.2 ± 2.55 µM in assay [1] and 91.1 ± 36.7 µM in assay [2].
